Experiments:
[1] = test system: S. aureus ATCC 6538; assay: Modified "MIC" test in micro titer trays (liquid medium); format: cell-based, Staphylococcus aureus
Protocol: (§1) Potency of Teicoplanin TA2, TA3-1 alone or in combination was determined by agar diffusion assays. Furthermore, the antimicrobial effect of pure and spiked products was investigated through the determination of the minimum inhibitory concentration (MIC) by a modified “MIC” test in micro titer trays.
Pure TA3-1, (Teicoplanin Material B 96% TA2-X, 4% TA3-1) and mixtures thereof were used. The test strain used was S. aureus ATCC 6538 in final concentrations of 5×10^5/ml and 5×10^4/ml respectively. The test was carried out in micro titer trays as a modification of an ordinary MIC test. Instead of using two-fold dilutions, 0.40-1.20 μg/ml with 0.20 μl divisions and 1.0-4.0 μl/ml with 1.0 μl divisions was used. The trays were incubated at 37° C. The wells were examined after 24 hours and any visible growth was noted.
In order to strengthen the evidence some experiments were performed with a modified antimicrobial analysis of Teicoplanin, spiked with different amounts of TA3-1. It was carried out in liquid medium in contrast to the agar diffusion tests and determined the MIC values. The results are summarized in Table 4, (“MIC”-values of Teicoplanin and/or TA3-1 on S. aureus ATCC6538).
(§2) Potency of teicoplanin TA2, TA3-1 alone or in combinations was determined by agar diffusion assays as described in example 1. Modified MIC-values in microtitre trays were determined as described in example 1.

[2] = test system: Staphylococcus aureus ATCC 6538; assay: Microbiological potency by agar diffusion; format: cell-based
Protocol: Accordingly, in one embodiment a Teicoplanin composition as described herein, has a higher antibiotic activity than a corresponding Teicoplanin composition that has a %(mg TA3)/(mg TA3+TA2) of 6.5%, where the antibiotic activity is measured by a microbiological agar diffusion assay using Staphylococcus aureus ATCC 6538 as test strain and the measured potential potency (IU per mg TA2+TA3/g composition) is used to calculate the antibiotic activity.
Procedure for the Determination of Microbiological Potency by Agar Diffusion
as §1
The potency test is carried out according to the assay described below. […]
The results are analyzed by reading the zone diameters carefully with a 10× magnification and a precision of 0.1 mm. […]
as §2

MIC value relative to Targocid alone (times higher) ([1]; Example 2, FIG. 6, MIC in μg powder/ml solution): 4-5 times
MIC (μg/ml) 5 × 10^4/ml S.aureus ([1]; inoculum 5 × 10^4/ml, 37° C., read after 24 hours, lowest concentration without visible growth): 2–3 μg/ml
MIC (μg/ml) 5 × 10^5/ml S.aureus ([1]; inoculum 5 × 10^5/ml, 37° C., read after 24 hours, lowest concentration without visible growth): 2–3 μg/ml
Compound: CC(=O)N[C@H]1[C@H](O[C@@H]2c3ccc(c(Cl)c3)Oc3cc4cc(c3O)Oc3ccc(cc3Cl)C[C@H]3NC(=O)[C@H](N)c5ccc(O)c(c5)Oc5cc(O)cc(c5)[C@H](NC3=O)C(=O)N[C@H]4C(=O)N[C@H]3C(=O)N[C@@H]2C(=O)N[C@H](C(=O)O)c2cc(O)cc(O[C@H]4O[C@H](CO)[C@@H](O)[C@H](O)[C@@H]4O)c2-c2cc3ccc2O)O[C@H](CO)[C@@H](O)[C@@H]1O [TA3-1, Teicoplanin A3-1]
Potency IU/mg powder ([2]; Example 1, agar diffusion, 2-point assay, potency of the powder as such): 570 IU/mg powder
potency by agar diffusion (IU/mg powder) compared with Targocid alone ([2]; Example 2, FIG. 5, Targocid/TA3-1 solutions mixed at different mass TA3-1%): much lower potency
